These results are taken from ChEMBL document CHEMBL1909046, “DrugMatrix in vitro pharmacology data”.

Experiment [1] addresses 5-hydroxytryptamine receptor 6 (Homo sapiens, UniProt P50406). Type of experiment: cell membranes, HeLa, Membrane. The settings on record: for Ki: read-out: Ki.
Experiment [2] is described as follows: DRUGMATRIX: Tumor Necrosis Factor (TNF), Non-Selective radioligand binding (ligand: [125I] TNF-alpha). Type of experiment: cell membranes, Membrane. As to conditions: u-937; Not Active = under 50% inhibition at 10 µM.
For experiment [3], the target named is Glycine receptor (Rattus norvegicus, UniProt P22771+P24524+P07727+P20781). In kind it is cell membranes, Wistar, Spinal cord, Membrane. Also: in other assays of this panel Not Active means under 50% inhibition at 10 µM.
Experiment [4] can be described thus: DRUGMATRIX: Leukotriene, BLT (LTB4) radioligand binding (ligand: [3H]LTB4). In kind it is cell membranes, Membrane. As to conditions: u-937; Not Active = under 50% inhibition at 10 µM.
The target of experiment [5] is T1, Nitric oxide synthase, inducible (Mus musculus, UniProt P29477).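 Also: inhibition of iNOS enzyme activity measured with L-arginine as substrate; in other assays of this panel Not Active means under 50% inhibition at 10 µM.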
T1 sequence (P29477 whole entry): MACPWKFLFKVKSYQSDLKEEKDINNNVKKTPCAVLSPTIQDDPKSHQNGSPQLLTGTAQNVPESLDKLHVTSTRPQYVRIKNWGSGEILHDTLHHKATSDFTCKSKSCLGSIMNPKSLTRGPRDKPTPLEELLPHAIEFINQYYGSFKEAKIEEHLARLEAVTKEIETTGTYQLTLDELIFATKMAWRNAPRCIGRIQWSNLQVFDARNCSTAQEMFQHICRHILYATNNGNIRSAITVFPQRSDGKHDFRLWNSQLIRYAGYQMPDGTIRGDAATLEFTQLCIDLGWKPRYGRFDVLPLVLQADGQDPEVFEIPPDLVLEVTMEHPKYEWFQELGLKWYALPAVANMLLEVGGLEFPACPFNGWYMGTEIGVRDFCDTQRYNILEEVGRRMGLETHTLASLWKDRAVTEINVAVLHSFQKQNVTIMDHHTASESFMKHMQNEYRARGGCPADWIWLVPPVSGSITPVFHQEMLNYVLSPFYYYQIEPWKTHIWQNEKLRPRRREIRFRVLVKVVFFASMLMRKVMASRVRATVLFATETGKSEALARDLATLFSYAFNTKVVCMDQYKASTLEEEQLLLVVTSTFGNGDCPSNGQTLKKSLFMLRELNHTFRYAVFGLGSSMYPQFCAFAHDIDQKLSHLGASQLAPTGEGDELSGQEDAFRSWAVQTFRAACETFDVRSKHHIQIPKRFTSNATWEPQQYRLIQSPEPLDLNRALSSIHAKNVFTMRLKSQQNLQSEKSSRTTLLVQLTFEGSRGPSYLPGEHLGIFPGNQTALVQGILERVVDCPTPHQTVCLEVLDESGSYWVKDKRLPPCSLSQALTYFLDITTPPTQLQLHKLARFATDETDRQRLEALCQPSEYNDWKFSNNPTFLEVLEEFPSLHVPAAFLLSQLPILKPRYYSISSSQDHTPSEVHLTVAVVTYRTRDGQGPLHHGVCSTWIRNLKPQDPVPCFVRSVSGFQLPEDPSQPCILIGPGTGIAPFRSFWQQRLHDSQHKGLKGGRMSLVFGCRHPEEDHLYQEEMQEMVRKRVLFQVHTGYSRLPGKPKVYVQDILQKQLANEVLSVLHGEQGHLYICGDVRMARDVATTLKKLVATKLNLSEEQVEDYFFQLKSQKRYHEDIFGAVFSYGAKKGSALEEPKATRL
On the set-up: species or system Escherichia coli.

For experiment [6], the target named is T2, Progesterone receptor (Bos taurus, UniProt Q690N0).
T2 sequence (Q690N0 whole entry): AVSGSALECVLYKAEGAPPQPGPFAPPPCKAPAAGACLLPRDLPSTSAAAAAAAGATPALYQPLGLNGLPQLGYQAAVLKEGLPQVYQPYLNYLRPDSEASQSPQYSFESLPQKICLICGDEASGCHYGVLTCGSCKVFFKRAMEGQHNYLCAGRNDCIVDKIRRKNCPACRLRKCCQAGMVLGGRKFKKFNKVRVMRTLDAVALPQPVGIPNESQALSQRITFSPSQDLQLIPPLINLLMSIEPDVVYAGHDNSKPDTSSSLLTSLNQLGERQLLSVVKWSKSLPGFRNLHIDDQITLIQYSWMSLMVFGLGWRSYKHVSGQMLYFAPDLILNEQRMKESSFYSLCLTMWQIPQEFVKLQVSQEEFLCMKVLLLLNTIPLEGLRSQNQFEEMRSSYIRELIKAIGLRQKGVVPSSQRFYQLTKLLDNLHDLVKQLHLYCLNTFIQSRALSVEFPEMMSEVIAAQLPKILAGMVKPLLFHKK
As to the kind of experiment: DRUGMATRIX: Progesterone radioligand binding (ligand: [3H] R-5020). In kind it is tissue-based, Uterus. The settings on record: Not Active = under 50% inhibition at 10 µM.

The target in experiment [7] is T3, Neutrophil elastase (Homo sapiens, UniProt P08246).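 Also: inhibition of neutrophil elastase enzyme activity, measured with a p-nitroanilide-linked peptide substrate; in other assays of this panel Not Active means under 50% inhibition at 10 µM.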
T3 sequence (P08246 whole entry): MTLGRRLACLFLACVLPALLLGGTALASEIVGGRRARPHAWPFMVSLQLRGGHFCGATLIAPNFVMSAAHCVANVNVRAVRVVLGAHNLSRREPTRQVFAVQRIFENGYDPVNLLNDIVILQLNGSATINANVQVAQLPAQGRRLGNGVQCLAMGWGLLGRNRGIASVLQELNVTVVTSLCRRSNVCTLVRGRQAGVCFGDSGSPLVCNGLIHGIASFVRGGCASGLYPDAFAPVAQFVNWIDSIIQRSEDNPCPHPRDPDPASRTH
Type of experiment: tissue-based.

5-hydroxytryptamine receptor 6, sequence (P50406 whole entry): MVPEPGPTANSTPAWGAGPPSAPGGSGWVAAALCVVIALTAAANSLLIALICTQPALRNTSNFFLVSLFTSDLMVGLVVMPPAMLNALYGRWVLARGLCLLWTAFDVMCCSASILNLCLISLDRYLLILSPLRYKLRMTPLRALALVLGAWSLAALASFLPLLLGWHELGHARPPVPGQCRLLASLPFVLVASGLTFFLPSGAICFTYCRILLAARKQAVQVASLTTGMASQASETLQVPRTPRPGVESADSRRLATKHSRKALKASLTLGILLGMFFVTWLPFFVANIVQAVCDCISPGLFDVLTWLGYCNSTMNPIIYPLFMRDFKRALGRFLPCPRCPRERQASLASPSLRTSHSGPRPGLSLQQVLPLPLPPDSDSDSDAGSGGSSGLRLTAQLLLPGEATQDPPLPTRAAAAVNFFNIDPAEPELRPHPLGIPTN

Consider `C[C@H]1C[C@H]2[C@@H]3CCC4=CC(=O)C=C[C@]4(C)[C@@]3(F)[C@@H](O)C[C@]2(C)[C@@]1(O)C(=O)CO` [BETAMETHASONE], for which the IC50 entry in experiment [1] (hela), in experiment [2], in experiment [3], in experiment [4], in experiment [5] and in experiment [6] was “Not Active” each time. Moreover, the IC50 (in general, the concentration that inhibits the measured activity by half) in experiment [7] is listed as “Not Active”. The Ki result in experiment [2] and in experiment [4] was “Not Active” throughout.

As to `CC(C)(c1ccc(O)cc1)c1ccc(O)cc1` [BISPHENOL A], the IC50 in experiment [1] (read-out: IC50) was 5420 nM; in experiment [2], “Not Active”; in experiment [3], “Not Active”; in experiment [4] it was “Not Active”; in experiment [5] it was “Not Active”; in experiment [6], “Not Active”. The IC50 entry in experiment [7] was “Not Active”. Further, the Ki (commonly a measure of affinity in units of concentration, obtained from inhibition or displacement) in experiment [1] was 2520 nM; in experiment [2] it was “Not Active”; in experiment [4], “Not Active”.

In the case of `Cc1c(N)nc([C@H](CC(N)=O)NC[C@H](N)C(N)=O)nc1C(=O)N[C@H](C(=O)N[C@H](C)[C@@H](O)[C@H](C)C(=O)N[C@H](C(=O)NCCc1nc(-c2nc(C(=O)NCCC[S+](C)C)cs2)cs1)[C@@H](C)O)[C@@H](O[C@@H]1O[C@@H](CO)[C@@H](O)[C@H](O)[C@@H]1O[C@H]1O[C@H](CO)[C@@H](O)[C@H](OC(N)=O)[C@@H]1O)c1c[nH]cn1.[Br-]` [BLEOMYCIN A2], the IC50 entry in experiment [1] (hela), in experiment [2], in experiment [3], in experiment [4], in experiment [5] and in experiment [6] was “Not Active” in each case. The IC50 entry in experiment [7] is listed as “Not Active”. In addition, the Ki result in experiment [2] and in experiment [4] was “Not Active” in each case.

Take `CN(Cc1cc(Br)cc(Br)c1N)C1CCCCC1` [BROMHEXINE]: the IC50 result in experiment [1] (hela), in experiment [2], in experiment [3], in experiment [4], in experiment [5] and in experiment [6] was “Not Active” throughout. Further, the IC50 result in experiment [7] was “Not Active”. Besides, the Ki entry in experiment [2] and in experiment [4] was “Not Active” in each case.

As for `CC(N)Cc1c[nH]c2ccc(OCc3cccs3)cc12` (stereo not given) [BW-723C86], the IC50 is 641 nM in experiment [1] (read-out: IC50); “Not Active” in experiment [2]; “Not Active” in experiment [3]; “Not Active” in experiment [4]; “Not Active” in experiment [5]; “Not Active” in experiment [6]. The IC50 result in experiment [7] is “Not Active”. In addition, the Ki is 298 nM in experiment [1], “Not Active” in experiment [2] and “Not Active” in experiment [4].

Consider `CC12CCC(CC1=O)C2(C)C` (stereo not given) [CAMPHOR], for which the half-maximal inhibitory concentration (IC50) result in experiment [1] (hela), in experiment [2], in experiment [3], in experiment [4], in experiment [5] and in experiment [6] was “Not Active” throughout. The IC50 entry in experiment [7] is “Not Active”. The Ki entry in experiment [2] and in experiment [4] was “Not Active” in each case.

For `C[N+](C)(C)CCOC(N)=O.[Cl-]` [CARBACHOL], the IC50 entry in experiment [1] (hela), in experiment [2], in experiment [3], in experiment [4], in experiment [5] and in experiment [6] was “Not Active” each time. In addition, the IC50 entry in experiment [7] is reported as “Not Active”. The Ki result in experiment [2] and in experiment [4] was “Not Active” in each case.

For `CCCCCCNC(=O)n1cc(F)c(=O)[nH]c1=O` [CARMOFUR], the IC50 result in experiment [1] (hela), in experiment [2], in experiment [3], in experiment [4], in experiment [5] and in experiment [6] was “Not Active” each time. The IC50 result in experiment [7] is recorded as “Not Active”. The Ki result in experiment [2] and in experiment [4] was “Not Active” each time.

With `COc1ccccc1OCCNCC(O)COc1cccc2[nH]c3ccccc3c12` (stereo not given) [CARVEDILOL], the IC50 was 1520 nM in experiment [1] (read-out: IC50); “Not Active” in experiment [2]; “Not Active” in experiment [3]; “Not Active” in experiment [4]; “Not Active” in experiment [5]; “Not Active” in experiment [6]. In addition, the IC50 result in experiment [7] is given as “Not Active”. In addition, the Ki in experiment [1] was 705 nM; in experiment [2] it was “Not Active”; in experiment [4] it was “Not Active”.

In the case of `Cl.NC[C@H]1CC[C@H](C(=O)Oc2ccc(CCC(=O)O)cc2)CC1` [CETRAXATE HYDROCHLORIDE], the IC50 result in experiment [1] (hela), in experiment [2], in experiment [3], in experiment [4], in experiment [5] and in experiment [6] was “Not Active” throughout. Moreover, in experiment [7], the IC50 entry is “Not Active”. In addition, the Ki result in experiment [2] and in experiment [4] was “Not Active” each time.

Take `CC1(COc2ccc(CC3SC(=O)NC3=O)cc2)CCCCC1` (stereo not given) [CIGLITAZONE]: the IC50 entry in experiment [1] (hela) is “Not Active”; in experiment [2], “Not Active”; in experiment [3] it was “Not Active”; in experiment [4], “Not Active”; in experiment [5], “Not Active”; in experiment [6] (read-out: IC50), 29100 nM. Moreover, the IC50 result in experiment [7] is given as “Not Active”. In addition, the Ki result in experiment [2] is “Not Active”; in experiment [4], “Not Active”; in experiment [6] (read-out: Ki) it was 3800 nM.

In the case of `CC(C)Cc1ccc([C@H](C)C(=O)O)cc1` [DEXIBUPROFEN], the IC50 entry in experiment [1] (hela), in experiment [2], in experiment [3], in experiment [4], in experiment [5] and in experiment [6] was “Not Active” throughout. Also, in experiment [7], the IC50 result is recorded as “Not Active”. For the same compound, the Ki result in experiment [2] and in experiment [4] was “Not Active” throughout.

Take `O=c1[nH]cnc2c1ncn2[C@H]1CC[C@@H](CO)O1` [DIDANOSINE]: the IC50 entry in experiment [1] (hela), in experiment [2], in experiment [3], in experiment [4], in experiment [5] and in experiment [6] was “Not Active” in each case. Moreover, the IC50 entry in experiment [7] is listed as “Not Active”. Besides, the Ki result in experiment [2] and in experiment [4] was “Not Active” in each case.

With `ClC1=C(Cl)[C@]2(Cl)[C@@H]3[C@@H]4C[C@@H]([C@H]5O[C@@H]45)[C@@H]3[C@@]1(Cl)C2(Cl)Cl` [DIELDRIN], the IC50 entry in experiment [1] (hela), in experiment [2], in experiment [3], in experiment [4], in experiment [5] and in experiment [6] was “Not Active” throughout. In addition, the IC50 result in experiment [7] is recorded as “Not Active”. In addition, the Ki result in experiment [2] and in experiment [4] was “Not Active” each time.
